Results reported in the supplement of paper PMC10307832.

Columns and labels:
Assay in all cases: relative viability (nuclei count vs DMSO), 5 days (fraction); higher = more cells survive
Trametinib + Navitoclax = compound: CC(=O)Nc1cccc(-n2c(=O)n(C3CC3)c(=O)c3c(Nc4ccc(I)cc4F)n(C)c(=O)c(C)c32)c1 [Trametinib] + CC1(C)CCC(c2ccc(Cl)cc2)=C(CN2CCN(c3ccc(C(=O)NS(=O)(=O)c4ccc(N[C@H](CCN5CCOCC5)CSc5ccccc5)c(S(=O)(=O)C(F)(F)F)c4)cc3)CC2)C1 [Navitoclax] (partner 0.5 µM)
How it was run: (§1)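 One day after seeding in 1536-well plates, lung cancer cell lines were dosed by pin tool. Dosing was either single-drug or a fixed anchor-drug dose plus five library-drug doses (not always all listed) in √10 steps. After 5 days, nuclei were stained in one fix-and-stain step and counted on 4× images, and relative viability is the nuclei count of treated wells over that of vehicle wells, given as the median of duplicate plates.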

[1] = compound: CN1C=C(C2=CC=CC=C21)/C=C\3/C4=C(C=CC=N4)NC3=O + CS(=O)(=O)CCNCc1ccc(-c2ccc3ncnc(Nc4ccc(OCc5cccc(F)c5)c(Cl)c4)c3c2)o1 [Lapatinib] (partner 2 µM)
How it was run: as §1

[2] = compound: CN1C=C(C2=CC=CC=C21)/C=C\3/C4=C(C=CC=N4)NC3=O + C[C@@H](Oc1cc(-c2cnn(C3CCNCC3)c2)cnc1N)c1c(Cl)ccc(F)c1Cl [Crizotinib] (partner 1 µM)
How it was run: as §1

[3] = compound: CN1C=C(C2=CC=CC=C21)/C=C\3/C4=C(C=CC=N4)NC3=O + Cc1cc(Nc2cc(N3CCN(C)CC3)nc(Sc3ccc(NC(=O)C4CC4)cc3)n2)n[nH]1 [Tozasertib] (partner 0.1 µM)
How it was run: as §1

UMC-11 showed a relative viability (Trametinib + Navitoclax; first compound 0.0025 µM) of 0.305, a relative viability (Trametinib + Navitoclax; first compound 0.007906 µM) of 0.32 and a relative viability (Trametinib + Navitoclax; first compound 0.025 µM) of 0.288. It also gave a relative viability (Trametinib + Navitoclax; first compound 0.07906 µM) of 0.266, a relative viability (Trametinib + Navitoclax; first compound 0.25 µM) of 0.263 and a relative viability ([1]; first compound 0.02 µM) of 0.854. For the same cell line, the relative viability ([1]; first compound 0.06325 µM) was 0.901, the relative viability ([1]; first compound 0.2 µM) was 0.632 and the relative viability ([1]; first compound 0.6325 µM) was 0.897. For the same cell line, the relative viability ([1]; first compound 2 µM) was 1.33, the relative viability ([2]; first compound 0.02 µM) was 0.448 and the relative viability ([2]; first compound 0.06325 µM) was 0.543. The relative viability ([2]; first compound 0.2 µM) was 0.578, the relative viability ([2]; first compound 0.6325 µM) was 0.855 and the relative viability ([2]; first compound 2 µM) was 0.786. It also gave a relative viability ([3]; first compound 0.02 µM) of 0.206, a relative viability ([3]; first compound 0.06325 µM) of 0.198 and a relative viability ([3]; first compound 0.2 µM) of 0.177. The relative viability ([3]; first compound 0.6325 µM) was 0.191 and the relative viability ([3]; first compound 2 µM) was 0.227.
